# Experimental data taken from patent publication US20110091470A1, “ANTI-FLT3 ANTIBODIES” (IMCLONE LLC, priority 2008, published 2011).
# Columns and labels:
# SEM-K2 cells [1] = assay: Combination therapy with EB10 and MTX in SEM-K2 leukemia model; type: in vivo, NOD/SCID mice; details: monotherapy: EB10 10 mg/kg i.p. 2×/week; MTX 100 mg/kg Q7D
# Protocol: One day prior to the start of treatment, i.v. inject 65, 7 weeks old, male NOD/SCID mice with 5×10^5 SEM-K2 cells suspended in PBS in a total volume of 200 μl. Drop from the study mice receiving less than 90% of cells intravenously.
# Prepare MTX (Sigma Chemical, Cat # M9929) in USP Saline at a concentration of 10 mg/ml and dose Q7D for three cycles. […] Record mouse survival daily. Follow the mice for survival, and sacrifice any mouse displaying signs of morbidity/mortality; mark as dead on the day of sacrifice. End the study on day 168 and sacrifice any mice surviving to that point. Compare survival in the treatment groups by Log Rank Test between treatment groups.
# Human Leukemia Cells = assay: ADCC 51Cr release assay with human NK cells; type: cell-based
# SEM-K2 cells [2] = assay: SEM-K2 xenograft human leukemia model; type: in vivo, NOD-SCID mice; details: 20 mg/kg i.p. two times weekly
# BaF3-ITD cells [3] = assay: FL-independent cell proliferation assay ([3H]-thymidine); type: cell-based
# Protocol: Harvest EOL-1 cells and wash three times using serum-free RPMI 1640 medium. Culture cells in serum-free RPMI 1640 medium for 12 hours. For BaF3-ITD cells, perform the proliferation assay in RPMI 1640 medium supplemented with 10% FCS in the absence of exogenous FL. Reconstitute cells in serum-free AIM-V medium, plate in triplicates in a flat-bottomed 96-well plate (1×104/100 μl/well) and incubate with varying concentrations of antibodies (from 0 to 100 nM) and 30 ng/ml of FL at 37° C. for 68 hours. As a background control, incubate cells with medium alone in the absence of exogenous FL. Pulse cells with 0.25 μCi/well of [^3H]-thymidine for 4 hours. Harvest cells and measure cpm in a PerkinElmer Wallace-1205 Betaplate Liquid Scintillation Counter (Wellesley, Mass.). Calculate the percent inhibition of FL-induced proliferation for EOL-1 cells; deduce the cpm of background proliferation (i.e., cell samples not stimulated with FL) from the cpm of all experimental samples. Calculate percent inhibition using the following formula: [(cpm of untreated sample−cpm of antibody-treated sample)/cpm of untreated sample]×100%.
# EOL-1 leukemia cells = assay: EOL-1 xenograft human AML leukemia model; type: in vivo, NOD-SCID mice
# [4] = tested on: human leukemia cells (human CD45) in bone marrow; assay: Bone marrow engraftment of human leukemia cells; type: in vivo, mice; details: 500 μg/dose; versus control-IgG treated group
# Protocol: Bone Marrow Engraftment of Human Leukemia Cells: Harvest bone marrow from the femurs of EB10-treated mice (500 μg/dose) and the control-IgG treated group at […]. Analyze cells for human CD45 by flow cytometry at 6 and 14 weeks post leukemia cell injection for the degree of tumor cell infiltration of bone marrow. Compare the degree of tumor cell infiltration of bone marrow using immunohistochemical staining with a fluorescence-labeled anti-human CD45 antibody.
# BaF3-ITD cells [5] = assay: BaF3-ITD leukemia model; type: in vivo, athymic (nu/nu) mice
# Protocol: BaF3-ITD Leukemia Model: Initiate i.v. injection of groups of 10 athymic (nu/nu) mice with 5×10^4 BaF3-ITD cells. For statistic analysis, use the non-parametric one-tailed Mann-Whitney Rank Sum test (SigmaStat 2.03, SPSS, Inc., Chicago, Ill.). Start treatment one day after tumor injection. […] Treat the control group with purified human IgG (500 μg/dose). Monitor mice daily for survival.
# MOLM-14 leukemia cells = assay: MOLM14 xenograft AML leukemia model; type: in vivo, mice
# Protocol: MOLM14 Xenograft AML Leukemia Model: Irradiate mice with 200 rads with a gamma irradiator and then i.v. inject with 10×10^6 MOLM-14 leukemia cells. Start treatment one day after tumor injection. […] Treat the control group with […] USP saline. Monitor mice daily for survival. Compare survival in the treatment groups by Log Rank test.
# Stat5 = Stat5 phosphorylation assay; details: EOL-1, wild type
# [6] = biological target: ITD-mutant FLT3 expressed on BaF3-ITD cells; assay: cell-based or functional assay
# ITD-mutant FLT3 expressed on BaF3-ITD cells, sequence (chain, as listed by the source mutant limits assumed, form in doubt): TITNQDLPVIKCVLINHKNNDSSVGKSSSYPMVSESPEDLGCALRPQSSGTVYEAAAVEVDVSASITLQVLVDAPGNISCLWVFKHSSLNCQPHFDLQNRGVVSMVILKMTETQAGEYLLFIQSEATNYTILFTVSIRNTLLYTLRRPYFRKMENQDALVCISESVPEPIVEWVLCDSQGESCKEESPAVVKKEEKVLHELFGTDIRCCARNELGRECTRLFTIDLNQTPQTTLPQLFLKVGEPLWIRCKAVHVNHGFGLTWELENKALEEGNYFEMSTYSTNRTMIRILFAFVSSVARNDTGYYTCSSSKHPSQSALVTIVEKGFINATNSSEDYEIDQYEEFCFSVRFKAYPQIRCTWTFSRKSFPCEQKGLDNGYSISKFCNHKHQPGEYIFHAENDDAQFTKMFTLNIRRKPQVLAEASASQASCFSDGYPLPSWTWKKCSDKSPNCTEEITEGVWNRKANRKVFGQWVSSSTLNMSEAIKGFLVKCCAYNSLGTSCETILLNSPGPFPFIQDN
# [7] = biological target: wild-type FLT3 expressed on human leukemia cells (human) (UniProt P36888); assay: cell-based or functional assay
# wild-type FLT3 expressed on human leukemia cells (human), sequence (P36888 27-993 limits assumed): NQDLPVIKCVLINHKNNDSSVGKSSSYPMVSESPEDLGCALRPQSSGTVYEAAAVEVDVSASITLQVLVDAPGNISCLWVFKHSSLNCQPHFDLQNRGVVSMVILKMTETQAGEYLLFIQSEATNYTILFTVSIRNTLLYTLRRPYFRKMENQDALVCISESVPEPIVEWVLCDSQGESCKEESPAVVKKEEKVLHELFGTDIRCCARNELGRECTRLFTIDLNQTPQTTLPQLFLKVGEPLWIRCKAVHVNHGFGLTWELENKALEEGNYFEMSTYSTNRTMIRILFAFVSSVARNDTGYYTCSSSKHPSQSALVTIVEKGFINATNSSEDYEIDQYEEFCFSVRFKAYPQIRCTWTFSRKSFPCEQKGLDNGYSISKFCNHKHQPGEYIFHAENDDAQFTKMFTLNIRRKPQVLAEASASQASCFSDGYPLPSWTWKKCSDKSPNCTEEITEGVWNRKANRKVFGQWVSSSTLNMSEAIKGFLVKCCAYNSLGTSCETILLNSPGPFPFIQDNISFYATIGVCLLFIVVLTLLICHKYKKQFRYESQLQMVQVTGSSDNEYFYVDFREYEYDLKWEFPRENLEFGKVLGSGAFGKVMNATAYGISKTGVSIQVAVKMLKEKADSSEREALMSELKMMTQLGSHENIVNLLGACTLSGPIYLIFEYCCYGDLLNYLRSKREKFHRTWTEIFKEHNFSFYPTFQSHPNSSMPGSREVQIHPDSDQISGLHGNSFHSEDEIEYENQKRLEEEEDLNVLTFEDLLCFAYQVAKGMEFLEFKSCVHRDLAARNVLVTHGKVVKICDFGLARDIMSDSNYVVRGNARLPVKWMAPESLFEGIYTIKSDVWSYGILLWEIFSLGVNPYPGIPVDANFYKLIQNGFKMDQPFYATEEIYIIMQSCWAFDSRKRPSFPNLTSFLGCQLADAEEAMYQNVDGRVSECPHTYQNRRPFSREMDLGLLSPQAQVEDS
# [8] = 100 μg/dose i.p. three times weekly
# [9] = 500 μg/dose i.p. three times weekly
compound,measurement,setting,value
"CN(Cc1cnc2nc(N)nc(N)c2n1)c1ccc(C(=O)N[C@@H](CCC(=O)O)C(=O)O)cc1 [MTX, methotrexate, reference compound]",mouse survival in comparison to the control group (in words),SEM-K2 cells [1],prolonged survival
"D4-3: recombinant human monoclonal antibody, full length IgG1κ targeting human FLT3; heavy chain SEQ ID NO 27, light chain SEQ ID NO 30 [Antibody D4-3]",ADCC response (in words),Human Leukemia Cells,less potent ADCC response
same,median survival,SEM-K2 cells [2],55.5 days
"EB10: recombinant human monoclonal antibody, full length IgG1κ targeting human FLT3; heavy chain SEQ ID NO 25, light chain SEQ ID NO 28",ADCC response (in words),Human Leukemia Cells,strong ADCC response
same,% Inhibition of FL-independent proliferation (Mean ± Standard deviation),BaF3-ITD cells [3]; 6 nM,9.6 ± 3.1%
same,% Inhibition of FL-independent proliferation (Mean ± Standard deviation),BaF3-ITD cells [3]; 13 nM,13.0 ± 4.0%
same,% Inhibition of FL-independent proliferation (Mean ± Standard deviation),BaF3-ITD cells [3]; 25 nM,23.3 ± 0.6%
same,% Inhibition of FL-independent proliferation (Mean ± Standard deviation),BaF3-ITD cells [3]; 50 nM,28.6 ± 3.1%
same,% Inhibition of FL-independent proliferation (Mean ± Standard deviation),BaF3-ITD cells [3]; 100 nM,29.2 ± 3.0%
same,effect on survival (in words),EOL-1 leukemia cells; 10 μg,No effect
same,mean survival time,EOL-1 leukemia cells; [8],52.8 ± 18.6 days
same,mean survival time,EOL-1 leukemia cells; 250 μg/dose i.p. three times weekly,55.3 ± 18.9 days
same,mean survival time,EOL-1 leukemia cells; [9],62.3 ± 18.7 days
same,number of tumor cells in bone marrow,[4],decreased significantly
same,mean survival time,BaF3-ITD cells [5]; [8],66.5 ± 32.9 days
same,mean survival time,BaF3-ITD cells [5]; [9],63.4 ± 44.6 days
same,median survival,MOLM-14 leukemia cells; 0.2 mg/kg i.p. two times weekly,38.5 days
same,median survival,MOLM-14 leukemia cells; 10 mg/kg i.p. two times weekly,63 days
same,median survival,SEM-K2 cells [2],108.5 days
same,mouse survival in comparison to the control group (in words),SEM-K2 cells [1],significantly prolonged mouse survival
same,Inhibition of Stat5 Phosphorylation (IC50),Stat5,No effect
control IgG (antibody),% Inhibition of FL-independent proliferation of BaF3-ITD cells at 100 nM,[6],2%
same,% Inhibition of FL-induced proliferation of EOL-1 cells at 100 nM,[7],0.4%
